Measured values taken from patent US20260159854A1, “NOVEL CARRIERS FOR NUCLEIC ACID AND/OR PROTEIN DELIVERY” (LUDWIG-MAXIMILIANS-UNIVERSITÄT MÜNCHEN, priority 2022, published 2026).

Columns and labels:
[1] = tested on: N2a tumor-bearing A/J mice; experiment: Ex vivo luciferase expression after intravenous injection of mRNA polyplexes; type: in vivo; conditions: tumors, lungs, liver, spleen
Experimental: Neuro2a cells (10^6 cells/150 μL PBS) were inoculated subcutaneously into the left flank of 6-week-old female A/J mice (Envigo RMS GmbH, Dusseldorf, Germany). Mice were randomly divided into groups of three (in the case of mRNA LNPs) or five (in the case of mRNA polyplexes) and were housed in isolated ventilated cages under specific pathogen free conditions with a 12 h day/night interval, and food and water ad libitum. Weight and general well-being were monitored continuously. Tumor size was measured with a caliper and determined by formula: a*b^2/2 (a=longest side of the tumor; b=widest side vertical to a). When tumors reached a size of 250-500 mm3, the experiments were performed by intravenous tail vein injection of polyplexes or LNPs formed as described in 6.1 and 6.3, containing 1 μg, 3 μg or 10 μg of stabilized firefly luciferase encoding mRNA (CleanCap™ FLuc mRNA (5moU); Trilink Biotechnologies, San Diego, CA, USA) in 150 μL HBG. Polyplexes containing 10 μg mRNA were dialyzed for 1 h at 4° C. against HBG (dialysis membrane MWCO 100-500 Da; Spectra/Por®, Carl Roth, Karlsruhe, Germany) prior to application to remove small amounts of ethanol. […] The luciferase gene expression was determined as described above and is presented as relative light units (RLU) per gram (g) tumor/organ.
To evaluate luciferase mRNA delivery by an ex vivo luciferase gene expression assay, organ and tumor tissues were homogenized in Luciferase Cell Culture Lysis Reagent 1× (Promega, Mannheim, Germany), supplemented with 1% (v/v) protease and phosphatase inhibitor cocktail (Sigma-Aldrich, Munich, Germany) using a tissue and cell homogenizer (FastPrep®-24, MP Biomedicals, USA). […] Luciferase activity in 25 μL supernatant was measured in a Centro LB 960 plate reader luminometer (Berthold Technologies, Bad Wildbad, Germany) for 10 sec after addition of 100 μL/well of a LAR buffer solution (20 mM glycylglycine, 1.0 mM MgCl2, 0.10 mM EDTA, 3.3 mM DTT, 0.55 mM ATP, and 0.27 mM coenzyme A; pH 8-8.5) supplemented with 5% (v/v) of a mixture of 10 mM luciferin and 29 mM glycylglycine.

[2] = tested on: KB, U87, and HCT116 cells; conditions: 10 ng poly(I:C) per well, 48 h, especially in KB cells
Experimental: The cytotoxic effect of double-stranded RNA (poly(I:C)) was evaluated in cancer cells using LAF carriers 1611, 1719, and 1752. The toxicity induced by poly(I:C) and carriers were differentiated by using non-toxic single-stranded poly(I). LPEI and the LAF-Stp carriers were transfected in medium supplemented with 10% (v/v) FBS. In the case of lipofectamine, particles were prepared and transfected according to the manufacturer's protocol (particle formation as well as transfection in serum-free medium; ThermoFisher). At 4 h after lipofectamine transfection, medium was replaced with fresh medium supplemented with 10% (v/v) FBS followed by incubation of 48 h in total. The percentage of cell survival was calculated relative to the HBG buffer-treated control cells (n=3, mean+SD).

[3] = Particle size, polydispersity and zeta potential measurement (DLS, ELS); type: physicochemical; parameters: Zeta / Size: unit not given here
Experimental: 6.6 Particle Size and Zeta Potential Measurement for pDNA, mRNA, siRNA, Cas9 mRNA/sgRNA and Cas9 mRNA/sgRNA/ssDNA Polyplexes as Well as mRNA LNPs
Measurements of size and zeta potential were performed with a Zetasizer Nano ZS (Malvern Instruments, Malvern, Worcestershire, U.K.) in a folded capillary cell (DTS1070) by dynamic and electrophoretic laser-light scattering (DLS, ELS). […] Samples were measured three times with six sub runs per measurement. For measurement of the zeta potential, all samples were diluted to 800 μL with HBG or HEPES (for siRNA polyplexes) directly before measurement. Parameters were identical to the size measurement apart from an equilibration time of 60 sec. Three measurements with 15 sub runs lasting 10 sec each were performed, and zeta potentials were calculated by the Smuchowski equation.

[4] = tested on: Huh7 cells; experiment: Luciferase expression assay of pDNA polyplexes in Huh7 cells; type: cell-based, human
[5] = Cas9 mRNA/sgDMDex23 polyplexes, N/P 24, combined nucleic acid 12.5 μg/mL
[6] = PEGylated pDNA polyplexes 25% PEG, 10 μg/mL pCMVLuc
[7] = Targeted pDNA polyplexes 12.5% PEG 2k, 12.5% PEG-GE11, 10 μg/mL pCMVLuc
[8] = Unmodified pDNA polyplexes 0%, 10 μg/mL pCMVLuc
[9] = dialyzed mRNA polyplexes for in vivo application, 66.7 μg/mL mRNA, 1611 N/P 18, 1719 N/P 12
[10] = mRNA polyplexes, 12.5 μg/mL CleanCap FLuc mRNA (5moU), N/P 12 (1611, 1719, 1722, 1732), N/P 24 (1614), N/P 18 (1621, 1747)
[11] = pDNA polyplexes, N/P 12, 10 μg/mL pCMVLuc
[12] = poly(I) polyplexes, 12.5 μg/mL, 1611 N/P 18, 1719 N/P 12, 1752 N/P 24
[13] = poly(I:C) polyplexes, 12.5 μg/mL, 1611 N/P 18, 1719 N/P 12, 1752 N/P 24

[K(12Oc)]2-Stp2-[K(12Oc)]2 [compound 1719]
in vivo luciferase expression of mRNA polyplexes [1]: great in vivo performance | cell viability after poly(I:C) polyplex treatment [2]: significant decrease in the cell viability | Pdl [3, 5]: 0.268 | Z-average [3, 5]: 80.8 nm | Zeta potential [3, 5]: 42.6 mV | Pdl [3, 6]: 0.13 | Size [3, 6]: 76 | Zeta [3, 6]: 10.5 | Pdl [3, 7]: 0.13 | Size [3, 7]: 88 | Zeta [3, 7]: 10.5 | Pdl [3, 8]: 0.09 | Size [3, 8]: 77 | Zeta [3, 8]: 29.5 | Pdl [3, 9]: 0.176 ± 0.016 | Zeta potential [3, 9]: 30.7 ± 1.7 mV | Pdl [3, 10]: 0.225 | Z-average [3, 10]: 75.0 nm | Zeta potential [3, 10]: 33.0 mV | Pdl [3, 11]: 0.220 ± 0.001 | Z-average [3, 11]: 110.4 ± 1.89 nm | Zeta potential [3, 11]: 13.0 ± 0.5 mV | Pdl [3, 12]: 0.32 ± 0.08 | Z-average [3, 12]: 86.8 ± 11.4 nm | Zeta potential [3, 12]: 23.2 ± 0.4 mV | Pdl [3, 13]: 0.25 ± 0.05 | Z-average [3, 13]: 95.9 ± 2.1 nm | Zeta potential [3, 13]: 13.8 ± 2.9 mV | RLU values of targeted polyplexes in comparison to shielded polyplexes ([4]; N/P 12, pDNA dose 50 ng/well): 6.5 fold | RLU values of targeted polyplexes in comparison to shielded polyplexes ([4]; N/P 12, pDNA dose 100 ng/well): 4.4 fold
